Entries after “also recorded” stand apart in the source; their conditions may differ.
Experiments:
[1] = Proton Relaxation Enhancement (PRE) titration of ProHance with polyarylenes and reference compounds: Ka and Rb; format: binding; details: for Rb/r1p: adduct with ProHance relative to free ProHance; for Ka: interaction with ProHance (1 mM), Hepes/NaCl; for Ka / Rb: T = 25° C., 21.5 MHz, pH = 7.0 ± 0.1; for Rb: relaxivity of the adduct with ProHance at saturation
Description: (§1) This method consists in measuring the variation in the longitudinal proton Relaxation Rates (R1=1/T1) of the paramagnetic solutions upon increasing the concentration of the interacting substrate. […] To this end, solutions of the Gd-complexes (1 mM) were titrated with the polyarylenes compounds and non-hydrophobic reference compounds (in the concentration range 1-40 mM, leading to the saturation of the contrast agent), at 21.5 MHz and 298 K, in Hepes/NaCl buffer solution ([hepes]=3.8 mM, [NaCl]=150 mM) at pH 7.0-7.2.
(§2) The reproducibility of the T data was ±0.5%.
The least-squares fit of the R1 versus substrate concentration binding isotherms (FIGS. 4 and 5) enabled us to calculate the affinity constants and the relaxivities of the adducts reported in tables 2 and 3 below.
Other aromatic-containing structures, beside HPTS, were considered for the interaction.

[2] = Longitudinal relaxivity r1p of the free Gd-complex (relaxometry, 21.5 MHz); format: physicochemical; details: T = 25° C., B0 = 21.5 MHz, pH = 7.0 ± 0.1
Description: as §1, §2

[3] = Proton Relaxation Enhancement (PRE) titration of Gd-complexes (GBCA) with HPTS: binding parameters Ka and Rb; details: for Ka: interaction of GBCA (1 mM) with HPTS, Hepes/NaCl; for Ka / Rb: T = 25° C., 21.5 MHz, pH = 7.0 ± 0.1; for Rb: relaxivity of the adduct with HPTS at saturation
Description: The binding parameters Ka and Rb between the investigated Gd-complexes and the polyarylene additives were calculated by using the well-established Proton Relaxation Enhancement (PRE) technique.
This method consists in measuring the variation in the longitudinal proton Relaxation Rates (R1=1/T1) of the paramagnetic solutions upon increasing the concentration of the interacting substrate. By this method, the binding parameters Ka (the affinity constant) and Rb (the relaxivity of the resulting adducts at saturation) can be determined. To this end, solutions of the Gd-complexes (1 mM) were titrated with the polyarylenes compounds and non-hydrophobic reference compounds (in the concentration range 1-40 mM, leading to the saturation of the contrast agent), at 21.5 MHz and 298 K, in Hepes/NaCl buffer solution ([hepes]=3.8 mM, [NaCl]=150 mM) at pH 7.0-7.2.
Relaxation rates were measured on a Stelar SpinMaster Relaxometer (Stelar, Mede, PV, It) operating at 21.5 MHz by means of the inversion recovery method (16 experiments, two scans). The reproducibility of the T data was ±0.5%.
Analysis of data was carried out by using origin 9.0 software.

[4] = 1H NMRD profiles of ProHance free and in the presence of 40 mM HPTS; format: physicochemical; details: 1 mM ProHance with 40 mM HPTS vs ProHance as-such; 298 K; 0.01-70 MHz
Description: In order to investigate if the enhancement of the relaxivity is maintained at different magnetic field strength, the proton 1/T1 NMRD profiles were measured at 298 K on 1 mM ProHance solutions in the absence and in the presence of 40 mM HPTS. Measurements were carried out on a fast field-cycling Stelar relaxometer over a continuum of magnetic field strengths from 0.00024 to 0.47 T (corresponding to 0.01-20 MHz proton Larmor Frequency). The relaxometer operates under computer control with an absolute uncertainty in 1/T1 of ±0.1%. Additional data points in the range 21.5-70 MHz were obtained on the Stelar SpinMaster relaxometer. The concentration of the solutions used for the relaxometric characterization was determined according to a previously reported relaxometric method (Arena, F. et al, Bioconjugate Chem. 2011, 22, 2625-2635).
The analysis provides the evolution of the relaxivity of the two species as a function of the magnetic field.

[5] = system: TS/A breast cancer cells transplanted on Balb/c mice; details: T1w MRI at 7.1T, injection of 0.15 mmol/Kg ProHance alone or with 0.45 mmol/Kg HPTS
Description: Mice were injected with 0.15 mmoles/kg of ProHance e 0.45 mmoles/kg of HPTS (corresponding to 150-220 μL for 20-30 g mice).
In vivo experiments were carried out on xenograpt murine models of cancer.
Female 10-12 weeks Balb/c mice (Charles River Laboratories, Calco, Italy) were inoculated subcutaneously in the flank with 0.1 mL of a suspension containing 5×10^5 TS/A mammary breast cancer cell lines (Nanni P. et al. Clin. Exp. Metastasis 1983, 1, 373-380).
For MRI acquisition, mice were anesthetized by intramuscular injection of a mixture of 20 mg/kg tiletamine/zolazepam (Zoletil 100, Virbac, Milan, Italy) 20 mg/kg plus 5 mg/kg xylazine (Rompun; Bayer, Milan, Italy). A permanent vein access was obtained by inserting a PE10 catheter into the tail vein.
MR images have been acquired, pre and post injection of GBCA, at 7.1T by using Bruker Avance 300 spectrometer equipped with a Micro 2.5 microimaging probe. Mice were injected with 0.15 mmol/Kg of ProHance followed (after 1 h when the wash-out of the GBCA was considered complete) by the injection of a mixture of ProHance and HPTS (0.15 mmol/Kg ProHance and 0.45 mmol/Kg HPTS).
Tumor volume and morphology were determined by multislices anatomical T2w images. A ROI was manually drawn and the slice volume was calculated. […]

| SMILES | Rb/r1p [1] | Ka [1] | Rb [1] [mM⁻¹ s⁻¹] | Ka [3] | other results |
| --- | --- | --- | --- | --- | --- |
| O=S(=O)(O)c1cccc2c(S(=O)(=O)O)cccc12 [1,5 NDS, 1,5 Naphthalene disulphonic acid] | 1.4 | 45.5 M⁻¹ | 6.3 |  |  |
| O=S(=O)(O)c1ccc2cc(S(=O)(=O)O)ccc2c1 [2,6 NDS, 2,6 Naphthalene disulphonic acid] | 1.2 | 94.4 M⁻¹ | 5.4 |  |  |
| Nc1cc(S(=O)(=O)O)c2ccc3c(S(=O)(=O)O)cc(S(=O)(=O)O)c4ccc1c2c43 [APTS, 8-Aminopyrene-1,3,6 trisulfonic acid] | 1.6 | 319 M⁻¹ | 7.6 |  |  |
| O=C(O)COc1cc(S(=O)(=O)O)c2ccc3c(S(=O)(=O)O)cc(S(=O)(=O)O)c4ccc1c2c43 [CMPTS, 8-Carboxymethoxypyrene-1,3,6-trisulfonic acid] | 1.8 | 94.2 M⁻¹ | 8.5 |  |  |
| O=C(O)CN1CCN(CC(=O)O)CCN(CC(=O)O)CCN(CC(=O)O)CC1 [Dotarem] |  |  |  | 174 M⁻¹ | r1p [2]: 4.2 mM⁻¹ s⁻¹; Rb [3]: 7.4 mM⁻¹ s⁻¹ |
| O=C(O)CN1CCN(CC(=O)O)CCN(C(CO)C(O)CO)CCN(CC(=O)O)CC1 (stereo not shown) [Gadovist, Gadobutrol] |  |  |  | 1157 M⁻¹ | r1p [2]: 5.0 mM⁻¹ s⁻¹; Rb [3]: 7.9 mM⁻¹ s⁻¹ |
| O=C([O-])CN1CCNCCN(CC(=O)[O-])CCN(CC(=O)[O-])CC1.[Gd+3] [Gd-DO3A] |  |  |  | 246 M⁻¹ | r1p [2]: 6.2 mM⁻¹ s⁻¹; Rb [3]: 9.5 mM⁻¹ s⁻¹ |
| O=S(=O)(O)c1ccc(O)cc1 [HBSA, 4-Hydroxybenzenesulfonic acid] |  | No binding; also recorded: No interaction |  |  |  |
| O=S(=O)(O)c1cc(S(=O)(=O)O)c2ccc3c(O)cc(O)c4ccc1c2c43 [HPDS, 6,8-Dihydroxypyrene-1,3-disulfonic acid] | 2.4 | 124 M⁻¹ | 10.9 |  |  |
| O=S(=O)(O)c1cc(O)c2ccc3c(S(=O)(=O)O)cc(S(=O)(=O)O)c4ccc1c2c34 [HPTS, 8-Hydroxypyrene-1,3,6-trisulfonic acid] | 1.5 | 628 M⁻¹ | 6.9 |  |  |
| COc1cc(S(=O)(=O)O)c2ccc3c(S(=O)(=O)O)cc(S(=O)(=O)O)c4ccc1c2c43 [MPTS, 8-Methoxy-1,3,6 pyrene trisulfonic acid] | 1.4 | 514 M⁻¹ | 6.5 |  |  |
| CNC[C@H](O)[C@@H](O)[C@H](O)[C@H](O)CO.CNC[C@H](O)[C@@H](O)[C@H](O)[C@H](O)CO.O=C([O-])CN(CCN(CC(=O)[O-])CC(=O)O)CCN(CC(=O)[O-])CC(=O)O.[Gd+3] [Magnevist] |  |  |  | no binding is observed; also recorded: No interaction |  |
| CNC[C@H](O)[C@@H](O)[C@H](O)[C@H](O)CO.CNC[C@H](O)[C@@H](O)[C@H](O)[C@H](O)CO.O=C([O-])CN(CCN(CC(=O)[O-])CC(=O)O)CCN(CC(=O)O)C(COCc1ccccc1)C(=O)[O-].[Gd+3] (stereo not shown) [MultiHance, gadobenate dimeglumine] |  |  |  | no binding is observed; also recorded: No interaction |  |
| CNC(=O)CN(CCN(CCN(CC(=O)[O-])CC(=O)NC)CC(=O)[O-])CC(=O)[O-].[Gd+3] [Omniscan] |  |  |  | no binding is observed; also recorded: No interaction |  |
| O=S(=O)(O)c1cc(S(=O)(=O)O)c2ccc3c(S(=O)(=O)O)cc(S(=O)(=O)O)c4ccc1c2c43 [PTS, 1,3,6,8 Pyrenetetrasulfonic acid] | 1.6 | 177 M⁻¹ | 7.3 |  |  |
| CC(O)CN1CCN(CC(=O)O)CCN(CC(=O)O)CCN(CC(=O)O)CC1 (stereo not shown) [ProHance] |  |  |  | 628 M⁻¹ | r1p [2]: 4.6 mM⁻¹ s⁻¹; improvement of the relaxivity as a function of the magnetic field (NMRD profile) [4]: maintained over the whole range of magnetic field; mean signal enhancement, Enh %, in the tumor ROI [5]: 53%; improvement of the relaxivity shown by the free complex ([3]; 20% of the complex in the form of a non-covalent adduct with HPTS): about 10%; improvement of the relaxivity shown by the free complex ([3]; 60% of the complex in the form of a non-covalent adduct with HPTS): ~30%; improvement of the relaxivity shown by the free complex ([3]; 99% of the complex in the form of a non-covalent adduct with HPTS): ~50%; improvement of relaxivity in comparison with Prohance as-such ([3]; molar ratio 1:3 of Prohance to HTPS): about 30%; Rb [3]: 6.9 mM⁻¹ s⁻¹ |

From patent US12226494B2, “Pharmaceutical compositions comprising Gd-complexes and polyarylene additives” (BRACCO IMAGING S.P.A., priority 2018, dated 2025)
